Measured values reported in US11021493B2, “1,4-thiazine dioxide and 1,2,4-thiadiazine dioxide derivatives as beta-secretase inhibitors and methods of use” (AMGEN INC., priority 2016, dated 2021).

Tests used:
human recombinant BACE2 = human recombinant BACE2 (Homo sapiens (Human), UniProt Q9Y5Z0); assay: In vitro enzymatic BACE2 FRET assay; format: biochemical; details: read-out: BACE2 Enzyme IC50
BACE1 [1] = target: T1, BACE1 (Homo sapiens (Human), UniProt P56817); assay: In vitro BACE1 cell-based assay (Aβ40 in conditioned medium of cells stably expressing APP, HTRF); details: Aβ40 in conditioned media after 24 h incubation
Target sequence in this assay (P56817 46-501, species assumed): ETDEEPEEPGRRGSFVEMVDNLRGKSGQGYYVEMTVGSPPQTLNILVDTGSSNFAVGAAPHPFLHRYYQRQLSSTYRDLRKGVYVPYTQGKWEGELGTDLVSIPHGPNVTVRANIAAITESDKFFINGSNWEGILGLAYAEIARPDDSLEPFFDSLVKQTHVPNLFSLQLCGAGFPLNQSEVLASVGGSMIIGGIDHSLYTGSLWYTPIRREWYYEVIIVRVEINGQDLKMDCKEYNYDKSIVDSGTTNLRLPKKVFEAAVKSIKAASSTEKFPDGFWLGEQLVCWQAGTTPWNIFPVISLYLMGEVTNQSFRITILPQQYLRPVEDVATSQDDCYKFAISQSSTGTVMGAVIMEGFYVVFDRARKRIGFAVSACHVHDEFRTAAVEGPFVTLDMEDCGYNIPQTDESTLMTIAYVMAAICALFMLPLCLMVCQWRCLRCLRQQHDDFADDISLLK

BACE1 [2] = target: T1, BACE1; assay: In vitro enzymatic BACE1 FRET assay; format: biochemical; details: read-out: BACE1 Enzyme IC50
Target sequence in this assay (P56817 46-501): as the sequence (P56817 46-501, species assumed) above

Cathepsin D (CatD) = Cathepsin D (CatD) (Homo sapiens (Human), UniProt P07339); assay: In vitro enzymatic Cathepsin D (CatD) FRET assay; format: biochemical; details: read-out: Cat D Enzyme IC50
Cathepsin D (CatD), sequence (P07339 65-412, species assumed): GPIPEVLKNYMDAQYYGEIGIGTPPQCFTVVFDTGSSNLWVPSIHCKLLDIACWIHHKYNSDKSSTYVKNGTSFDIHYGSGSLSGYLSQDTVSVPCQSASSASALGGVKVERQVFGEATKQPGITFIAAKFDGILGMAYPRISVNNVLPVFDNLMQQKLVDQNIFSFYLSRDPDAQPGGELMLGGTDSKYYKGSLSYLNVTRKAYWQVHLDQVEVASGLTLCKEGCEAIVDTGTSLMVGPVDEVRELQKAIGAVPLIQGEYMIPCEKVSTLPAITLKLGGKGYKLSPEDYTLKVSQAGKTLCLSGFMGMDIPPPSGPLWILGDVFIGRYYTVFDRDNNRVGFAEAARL

human recombinant BACE2, sequence (Q9Y5Z0 63-518): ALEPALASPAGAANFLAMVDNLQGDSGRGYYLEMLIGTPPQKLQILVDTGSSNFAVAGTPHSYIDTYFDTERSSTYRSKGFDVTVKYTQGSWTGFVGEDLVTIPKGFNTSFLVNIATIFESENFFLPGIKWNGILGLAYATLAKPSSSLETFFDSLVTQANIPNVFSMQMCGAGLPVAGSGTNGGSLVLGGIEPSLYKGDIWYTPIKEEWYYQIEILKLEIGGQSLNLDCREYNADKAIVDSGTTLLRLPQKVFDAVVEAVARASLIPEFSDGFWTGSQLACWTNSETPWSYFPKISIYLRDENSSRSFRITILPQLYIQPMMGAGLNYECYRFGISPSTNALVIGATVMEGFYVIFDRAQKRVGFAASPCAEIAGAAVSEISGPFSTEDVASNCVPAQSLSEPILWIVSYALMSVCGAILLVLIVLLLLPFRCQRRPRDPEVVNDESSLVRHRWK

Row | IC50 (human recombinant BACE2) [nM] | IC50 (BACE1 [1]) [nM] | IC50 (BACE1 [2]) [nM] | IC50 (Cathepsin D (CatD)) [nM] | SMILES
1 | 1060 | 2180 | 636 | 249000 | CC(C)(C#N)COc1cnc(/C(F)=C/c2ccc(F)c([C@]3(C)CS(=O)(=O)C(C)(C)C(N)=N3)c2)cn1 [Example 153, (R,Z)-3-((5-(2-(3-(5-amino-3,6,6-trimethyl-1,1-dioxido-3,6-dihydro-2H-1,4-thiazin-3-yl)-4-fluorophenyl)-1-fluorovinyl)pyrazin-2-yl)oxy)-2,2-dimethylpropanenitrile]
2 | 40 | 33 | 6 | 54400 | CN1C(N)=N[C@](C)(c2cc(/C=C(\F)c3ccc(OC(F)(F)F)cn3)ccc2F)CS1(=O)=O [Example 258, (R,Z)-3-amino-5-(2-fluoro-5-(2-fluoro-2-(5-(trifluoromethoxy)pyridin-2-yl)vinyl)phenyl)-2,5-dimethyl-5,6-dihydro-2H-1,2,4-thiadiazine 1,1-dioxide]
3 | 217 | 88 | 18 | 25300 | CN1C(N)=N[C@](C)(c2cc(/C=C(\F)c3cnc(OCC(F)(F)C(F)F)cn3)ccc2F)CS1(=O)=O [Example 148, (R,Z)-3-amino-5-(2-fluoro-5-(2-fluoro-2-(5-(2,2,3,3-tetrafluoropropoxy)pyrazin-2-yl)vinyl)phenyl)-2,5-dimethyl-5,6-dihydro-2H-1,2,4-thiadiazine 1,1-dioxide]
4 | 103 | 9 | 7 | 78100 | Cc1nnc(COc2cnc(/C(F)=C/c3ccc(F)c([C@]4(C)CS(=O)(=O)N(C)C(N)=N4)c3)cn2)o1 [Example 173, (R,Z)-3-amino-5-(2-fluoro-5-(2-fluoro-2-(5-((5-methyl-1,3,4-oxadiazol-2-yl)methoxy)pyrazin-2-yl)vinyl)phenyl)-2,5-dimethyl-5,6-dihydro-2H-1,2,4-thiadiazine 1,1-dioxide]
5 | 167 | 227 | 28 | 135000 | C[C@]1(c2cc(/C=C(\F)c3cnc(OCC(F)(F)F)cn3)ccc2F)N=C(N)[C@@]2(CF)CC[C@@H]1S2(=O)=O [Example 109, (1R,4R,5S)-2-amino-4-(2-fluoro-5-((Z)-2-fluoro-2-(5-(2,2,2-trifluoroethoxy)pyrazin-2-yl)vinyl)phenyl)-1-(fluoromethyl)-4-methyl-8-thia-3-azabicyclo[3.2.1]oct-2-ene 8,8-dioxide]
6 | 2390 | 985 | 5140 | 440000 | CC1(C)C(N)=N[C@](C)(c2cc(/C=C(\F)c3cnc(OCCn4ccnc4)cn3)ccc2F)CS1(=O)=O [Example 155, (R,Z)-3-(5-(2-(5-(2-(1H-imidazol-1-yl)ethoxy)pyrazin-2-yl)-2-fluorovinyl)-2-fluorophenyl)-5-amino-3,6,6-trimethyl-3,6-dihydro-2H-1,4-thiazine 1,1-dioxide]
7 | 190 | 133 | 189 | 237000 | COc1cnc(/C(F)=C/c2ccc(F)c([C@]3(C)CS(=O)(=O)C(C)(C)C(N)=N3)c2)cn1 [Example 263, (R,Z)-5-amino-3-(2-fluoro-5-(2-fluoro-2-(5-methoxypyrazin-2-yl)vinyl)phenyl)-3,6,6-trimethyl-3,6-dihydro-2H-1,4-thiazine 1,1-dioxide]
8 | 142 | 6 | 5 | 17000 | C#C[C@H](C)Oc1cnc(/C(F)=C/c2ccc(F)c([C@]3(C)CS(=O)(=O)N(C)C(N)=N3)c2)cn1 [Example 171, (R)-3-amino-5-(5-((Z)-2-(5-((S)-but-3-yn-2-yloxy)pyrazin-2-yl)-2-fluorovinyl)-2-fluorophenyl)-2,5-dimethyl-5,6-dihydro-2H-1,2,4-thiadiazine 1,1-dioxide]
9 | 285 | 529 | 180 | 195000 | C[C@@H](CO)Oc1cnc(/C(F)=C/c2ccc(F)c([C@]3(C)CS(=O)(=O)C(C)(C)C(N)=N3)c2)cn1 [Example 218, (R)-5-amino-3-(2-fluoro-5-((Z)-2-fluoro-2-(5-(((S)-1-hydroxypropan-2-yl)oxy)pyrazin-2-yl)vinyl)phenyl)-3,6,6-trimethyl-3,6-dihydro-2H-1,4-thiazine 1,1-dioxide]

The next lines start with the compound.

Row | SMILES | IC50 (human recombinant BACE2) [nM] | IC50 (BACE1 [1]) [nM] | IC50 (BACE1 [2]) [nM] | IC50 (Cathepsin D (CatD)) [nM]
10 | CN1C(N)=N[C@](C)(c2cc(/C=C(\F)c3cc4ccccc4cn3)ccc2F)CS1(=O)=O [Example 259, (5R)-5-(2-fluoro-5-((Z)-2-fluoro-2-(3-isoquinolinyl)ethenyl)phenyl)-2,5-dimethyl-5,6-dihydro-2H-1,2,4-thiadiazin-3-amine 1,1-dioxide] | 41 | 1120 | 272 | 116000
11 | C[C@]1(c2cc(/C=C(\F)c3cnc(OCC4COC4)cn3)ccc2F)N=C(N)[C@@]2(CF)CC[C@@H]1S2(=O)=O [Example 126, (1R,4R,5S)-2-amino-4-(2-fluoro-5-((Z)-2-fluoro-2-(5-(oxetan-3-ylmethoxy)pyrazin-2-yl)vinyl)phenyl)-1-(fluoromethyl)-4-methyl-8-thia-3-azabicyclo[3.2.1]oct-2-ene 8,8-dioxide] | 141 | 457 | 138 | 100000
12 | C[C@@]1(c2cc(/C=C(\F)c3ccc(C#N)cn3)ccc2F)CS(=O)(=O)C2(CCC2)C(N)=N1 [Example 103, (R,Z)-6-(2-(3-(9-amino-7-methyl-5,5-dioxido-5-thia-8-azaspiro[3.5]non-8-en-7-yl)-4-fluorophenyl)-1-fluorovinyl)nicotinonitrile] | 50 | 39 | 3 | 94700
13 | C=CCOc1cnc(/C(F)=C/c2ccc(F)c([C@@]3(C)N=C(N)[C@@]4(CF)CC[C@@H]3S4(=O)=O)c2)cn1 [Example 125, (1R,4R,5S)-4-(5-((Z)-2-(5-(allyloxy)pyrazin-2-yl)-2-fluorovinyl)-2-fluorophenyl)-2-amino-1-(fluoromethyl)-4-methyl-8-thia-3-azabicyclo[3.2.1]oct-2-ene 8,8-dioxide] | 163 | 446 | 48 | 91200
14 | CC1(C)C(N)=N[C@](C)(c2cc(/C=C(\F)c3ncc(C#N)cc3Cl)ccc2F)CS1(=O)=O [Example 268, (R,Z)-6-(2-(3-(5-amino-3,6,6-trimethyl-1,1-dioxido-3,6-dihydro-2H-1,4-thiazin-3-yl)-4-fluorophenyl)-1-fluorovinyl)-5-chloronicotinonitrile] | 12 | 35 | 7 | 136000
15 | CC#CCOc1cnc(/C(F)=C/c2ccc(F)c([C@@]3(C)N=C(N)[C@@]4(CF)CC[C@@H]3S4(=O)=O)c2)cn1 [Example 137, (1R,4R,5S)-2-amino-4-(5-((Z)-2-(5-(but-2-yn-1-yloxy)pyrazin-2-yl)-2-fluorovinyl)-2-fluorophenyl)-1-(fluoromethyl)-4-methyl-8-thia-3-azabicyclo[3.2.1]oct-2-ene 8,8-dioxide] | 44 | 4 | 1 | 65300
16 | CN1C(N)=N[C@](C)(c2cc(/C=C(\F)c3ncc(C#N)cc3Cl)cc(F)c2F)CS1(=O)=O [Example 276, (R,Z)-6-(2-(3-(3-amino-2,5-dimethyl-1,1-dioxido-5,6-dihydro-2H-1,2,4-thiadiazin-5-yl)-4,5-difluorophenyl)-1-fluorovinyl)-5-chloronicotinonitrile] | 6 | 17 | 2 | 58000
17 | CC1(C)C(N)=N[C@](C)(c2cc(/C=C(\F)c3ccc(C(F)(F)F)cn3)ccc2F)CS1(=O)=O [Example 265, (R,Z)-5-amino-3-(2-fluoro-5-(2-fluoro-2-(5-(trifluoromethyl)pyridin-2-yl)vinyl)phenyl)-3,6,6-trimethyl-3,6-dihydro-2H-1,4-thiazine 1,1-dioxide] | 43 | 10 | 8 | 89400
18 | Cc1cc(C#N)cnc1/C(F)=C/c1ccc(F)c([C@]2(C)CS(=O)(=O)C(C)(C)C(N)=N2)c1 [Example 274, (R,Z)-6-(2-(3-(5-amino-3,6,6-trimethyl-1,1-dioxido-3,6-dihydro-2H-1,4-thiazin-3-yl)-4-fluorophenyl)-1-fluorovinyl)-5-methylnicotinonitrile] | 28 | 51 | 6 | 122000
19 | CC#CCOc1cnc(/C(F)=C/c2ccc(F)c([C@@]3(C)N=C(N)N(C)S(=O)(=O)C3(C)C)c2)cn1 [Example 185, (R,Z)-3-amino-5-(5-(2-(5-(but-2-yn-1-yloxy)pyrazin-2-yl)-2-fluorovinyl)-2-fluorophenyl)-2,5,6,6-tetramethyl-5,6-dihydro-2H-1,2,4-thiadiazine 1,1-dioxide] | 159 | 5 | 2 | 259000
20 | Cc1cc(COc2cnc(/C(F)=C/c3ccc(F)c([C@@]4(C)N=C(N)N(C)S(=O)(=O)C45CC5)c3)cn2)no1 [Example 162, (8R)-8-(2-fluoro-5-((Z)-2-fluoro-2-(5-((5-methyl-3-isoxazolyl)methoxy)-2-pyrazinyl)ethenyl)phenyl)-5,8-dimethyl-4-thia-5,7-diazaspiro[2.5]oct-6-en-6-amine 4,4-dioxide] | 732 | 168 | 65 | 15700
21 | C[C@]1(c2cc(/C=C(\F)c3cnc(OCC4CC4)cn3)ccc2F)N=C(N)[C@@]2(CF)CC[C@@H]1S2(=O)=O [Example 118, (1R,4R,5S)-2-amino-4-(5-((Z)-2-(5-(cyclopropylmethoxy)pyrazin-2-yl)-2-fluorovinyl)-2-fluorophenyl)-1-(fluoromethyl)-4-methyl-8-thia-3-azabicyclo[3.2.1]oct-2-ene 8,8-dioxide] | 124 | 706 | 35 | > 400000
